Tested on: patients with an elevated LDL-C (≧100 mg/dL or 2.59 mmol/L) treated with a stable dose of atorvastatin 10 mg
Assay: Study 2: randomized, double-blind, placebo-controlled 8-week study of 316P 150 mg E2W with atorvastatin 10 mg or 80 mg
Type: in vivo, human
Method: This was a randomized, double-blind, 3-parallel-groups, placebo-controlled, fixed dose/dose regimen, multicenter, 8-week study in subjects with primary hypercholesterolemia, aged 18-75 years. One aim of this study was to assess the efficacy and safety of 316P in patients with an elevated LDL-C (≧100 mg/dL or 2.59 mmol/L) treated with a stable dose of atorvastatin 10 mg.
During the screening period, patients had to be stabilized to atorvastatin 10 mg for at least 6 weeks, if they are not already. Then, after 1 additional screening week, patients were centrally randomized via IVRS/IWRS in a 1:1:1 ratio to one of the 3 treatment groups (placebo for 316P+atorvastatin 80 mg, 316P 150 mg E2W+atorvastatin 80 mg, 316P 150 mg E2W+atorvastatin 10 mg) and treated in a double-blind manner for approximately 8 weeks. 316P was administered every 2 weeks on site trough subcutaneous injection and atorvastatin was administered orally once daily in the evening at home. The double-blind treatment period was then followed by an 8-week follow-up period.
Inclusion criteria: • Patients (patients receiving a lipid lowering treatment other than atorvastatin/or not at stable dose of atorvastatin 10 mg for at least 6 weeks prior to screening period, or drug naive patients) with primary hypercholesterolemia likely to have low-density lipoprotein cholesterol (LDL-C)≧100 mg/dL (≧2.59 mmol/L) at the end of the run-in period on atorvastatin therapy (Week-1). • OR • Patients with primary hypercholesterolemia treated with stable dose of atorvastatin 10 mg for at least 6 weeks prior to screening period and likely to have low-density lipoprotein cholesterol (LDL-C)≧100 mg/dL (≧2.59 mmol/L) at the screening visit (Week-1).
Duration of Study Period Per Subject:
• Arm 1: The first group of patients receives one subcutaneous injection of 1 mL of antibody 316P, administered in the abdomen every two weeks, with a dose regimen at 150 mg, for a double-blind treatment period of 8 weeks; • Atorvastatin is administered once per day at a stable dose of 10 mg as background therapy. • Atorvastatin is administered at a dose of 80 mg once during the double-blind treatment period of 8 weeks. • Arm 2: The second group of patients receives one subcutaneous injection of 1 mL of a placebo solution, administered in the abdomen every two weeks, with a dose regimen at 150 mg, for a double-blind treatment period of 8 weeks; • Atorvastatin is administered once per day at a stable dose of 10 mg as background therapy. • Atorvastatin is administered at a dose of 80 mg (2 over-encapsulated atorvastatin 40 mg tablets) once during the double-blind treatment period of 8 weeks. • Arm 3: The third group of patients receives one subcutaneous injection of 1 mL of antibody 316P, administered in the abdomen every two weeks, with a dose regimen at 150 mg, for a double-blind treatment period of 8 weeks; • Atorvastatin is administered once per day at a stable dose of 10 mg as background therapy. • Atorvastatin is administered at a dose of 10 mg (1 over-encapsulated atorvastatin 10 mg tablet+1 matching placebo tablet) once during the double-blind treatment period of 8 weeks. Primary and Key Secondary Endpoints Primary Endpoints
The primary efficacy variable is the percent change in calculated LDL-C from baseline to Week 8, which is defined as: 100×(calculated LDL-C value at Week 8-calculated LDL-C value at baseline)/calculated LDL-C value at baseline.
In case of unavailable calculated LDL-C value at Week 8 as defined above, then the last calculated LDL-C value measured during the efficacy period and before the Week 8 time window was used to impute the missing Week 8 calculated LDL-C value (Last Observation Carried Forward [LOCF] procedure). […]

[1] = 316P 150 mg with atorvastatin, 8 weeks, consistent with LDL-C decrease
[2] = 316P 150 mg+atorvastatin 80 mg vs placebo+atorvastatin 80 mg, p<0.0001

With “316P: fully human anti-PCSK9 antibody comprising a HCVR as shown in SEQ ID NO: 90 and LCVR as shown in SEQ ID NO: 92 [Antibody 316P]” the safety signal (150 mg E2W, 8 weeks) was “No particular safety signal was noted”, the tolerability (150 mg E2W, 8 weeks of treatment, all treatment groups) was “well tolerated” and the “HDL-C” value (316P 150 mg co-administered with atorvastatin 10 mg or 80 mg) was “trend of increase”. The “HDL-C percent change from baseline, LS mean” value (316P 150 mg co-administered with atorvastatin 10 mg, 8 weeks) was “+2.6%”, the “HDL-C percent change from baseline, LS mean” value (316P 150 mg co-administered with atorvastatin 80 mg, 8 weeks) was “+5.8%” and the “Apo-B/ApoA-1 ratio” value [1] was “Consistent results”. For the same substance, the “ApoB” value [1] was “Consistent results”, the “Total-C” value [1] was “Consistent results” and the “non HDL-C” value [1] was “Consistent results”. For the same substance, the “median reduction from baseline in LDL-C at 8 weeks” value (316P 150 mg+atorvastatin 10 mg group) was −70.4%, the “median reduction from baseline in LDL-C at 8 weeks” value (316P 150 mg+atorvastatin 80 mg group) was −70.6% and the “LS mean difference in percent change from baseline in LDL-C at 8 weeks” value [2] was −55.8%. For the same substance, the “effect size estimate, rank-based analysis of covariance, percent change in LDL-C at 8 weeks” value [2] was −54.5% and the troponin levels (all treatment groups) was “no change”.
